The values below come from publication PMC6201103, “The Small-Compound Inhibitor K22 Displays Broad Antiviral Activity against Different Members of the Family Flaviviridae and Offers Potential as a Panviral Inhibitor” (Antimicrobial Agents and Chemotherapy, 2018).

Bounds are passed on as bounds.

In series [1] the test system is WNV. In words: WNV infectivity (TCID50 titration) and replication in K22-treated Vero cells. It counts as cell-based, West Nile virus. The following applies: for IC50: West Nile virus, MOI 0.1 TCID50/cell. How it is done:
To test the effect of K22 on flavivirus, hepacivirus, and pestivirus infection, 8 × 10^4 Vero cells were seeded in 12-well dishes (flaviviruses), 5 × 10^4 Huh7-Lunet-N-hCD81-FLuc cells were seeded in 12-well dishes (hepacivirus), or 1 × 10^4 BT cells were seeded in 96-well dishes (pestivirus). At 1 day postseeding, cells were treated with different concentrations of K22 (diluted in DMSO at the concentrations indicated below) for 3 to 4 h and preincubated in 5% CO2 at 37°C. Cells were infected with different viruses at a multiplicity of infection (MOI) of 0.1 TCID50/cell for 1 h at 37°C. For HCV infection, cells were infected with JcR-2a or HCV Jc1 for 3 h at 37°C. Afterwards, cells were washed with prewarmed phosphate-buffered saline (PBS) solution, before cell culture medium supplemented with K22 or the DMSO control at each concentration was added, and incubated at 37°C in a 5% CO2 atmosphere. At 24 h and/or 48 h postinfection (p.i.), supernatants and cells were collected for further analysis.
Flavivirus replication and the cytopathic effect (CPE) were evaluated from collected cells. Cells in suspension were first labeled with the Fixable Aqua dead cell stain kit (Thermo Fisher Scientific, Waltham, MA, USA) for 30 min on ice, followed by washing with cold PBS. […] After washing, anti-mouse IgG2a conjugated with Alexa Fluor 647 (Thermo Fisher Scientific) was added for 15 min, and the cells were acquired on a FACSCanto II flow cytometer (BD Biosciences, Allschwil, Switzerland). FlowJo (v.9.1) software (TreeStar, Inc., Ashland, OR, USA) was used for analysis. Cell debris and doublets were excluded by electronic gating in forward/side scatter plots. Cell culture supernatants were collected at 24 and 48 h p.i., and the flavivirus titers in Vero cells were determined using the immunoperoxidase monolayer assay (IPMA). For that, supernatants 10-fold diluted in cell culture medium supplemented with 2% (vol/vol) FBS were incubated on Vero cells for 72 h at 37°C in a 5% CO2 atmosphere. At that point, cells were fixed in 4% (wt/vol) PFA for 10 min at room temperature, washed, and immunolabeled with anti-flavivirus group antigen antibody 4G2 diluted in 0.3% (wt/vol) saponin in PBS for 30 min at 37°C and then washed and incubated for another 30 min at 37°C with goat anti-mouse IgG conjugated with horseradish peroxidase (Dako), followed by incubation for 10 to 30 min at room temperature with 3-amino-9-ethylcarbazole (AEC) substrate (Sigma-Aldrich).

Series [2] deals with BT cells. In words: Cytotoxicity, CytoTox 96 nonradioactive cytotoxicity assay on BT cells. The series is classed as cell-based, bovine. The conditions noted are these: concentrations used for BVDV. How it is done: (§1) To evaluate the effect of K22 on cell viability, proliferation, as well as cytotoxicity, uninfected cells were treated with the compound at the concentrations specified above or with DMSO as a control. To determine the effect of K22 on cell viability, Vero cells were collected and labeled with the Fixable Aqua dead cell stain kit (Thermo Fisher Scientific) for 30 min on ice, before the cells were washed with cold PBS and fixed for flow cytometry analysis. As a positive control for cell death, cells were heated at 65°C for 30 min. The mean fluorescence intensity (MFI) was determined by flow cytometry analysis on a FACSCanto II flow cytometer (BD Bioscience) and evaluated using FlowJo (v.9.1) software. […] The compound was added at the concentrations indicated above, and cytotoxicity was determined at 24 and/or 48 h p.i. by determination of the absorbance at 490 nm using a plate reader (VersaMax [Molecular Devices, Wokingham, UK] or an EnSpire 2300 multilabel reader [PerkinElmer, Schwerzenbach, Switzerland]). Cell proliferation following compound treatment was determined using a MultiTox-Fluor multiplex cytotoxicity assay (catalog number G9200; Promega) according to the manufacturer's recommendations. The readout was performed using a multilabel reader (EnSpire 2300 multilabel reader; PerkinElmer) upon excitation at ∼400 nm and emission at ∼505 nm. […]

Experiment in series [3]: as above
The series is classed as cell-based, bovine. The following applies: bovine, CytoTox 96 assay. On the procedure:
as §1

With `O=C(N/C(=C\c1ccccc1)C(=O)N1CCC(O)(c2ccc(Br)cc2)CC1)c1ccccc1` [K22, (Z)-N-{3-[4-(4-bromophenyl)-4-hydroxypiperidin-1-yl]-3-oxo-1-phenylprop-1-en-2-yl} benzamide], the “SI (selectivity index), WNV” value in series [1] (24 h p.i.) is reported as 32.3; in series [1] (48 h p.i.), 10.0. In series [1] (Vero cells), the “K22 concentrations significantly reducing WNV replication and infectivity” value was at least 10 µM. Moreover, the IC50 in series [1] (24 h p.i., Vero cells) stood at 2.8 µM; in series [1] (48 h p.i., Vero cells), 8.4 µM. In addition, in series [2], the “cellular toxicity of K22” value is on record as “no cellular toxicity”. Also, the CC50 in series [3] was over 1000 µM.

One may read the IC50 as the concentration that inhibits the measured activity by half. Lower therefore signals greater potency in that assay. In general, CC50 refers to the concentration giving 50% cytotoxicity.
